# Test results from patent publication US20250213627A1, “RECOMBINANT MICROORGANISM-BASED METHODS AND COMPOSITIONS FOR TREATMENT OF DISEASE” (Baylor College of Medicine, priority 2021, published 2025).
# Assays:
# [1] = Thermal stability of peptide
# [2] = test system: ShK-235 neutralizing antibodies; test: Antibody neutralization assay with CIA rat serum; type: cell-based; details: CIA rat serum samples
# Procedure: To test if ShK-235 produced by LrS235 is immunogenic, the sera of rats were assessed at the end of the 21-day CIA trial shown in FIG. 8 for anti-ShK-235 IgG by ELISA assay. Plates coated with collagen II and HsTX1[R14A] were used as controls. HsTX1[R14A] is another peptide blocker of Kv1.3 with no sequence or structural homology to ShK-235.
# Antibody neutralization assays. […] It was then added to the PBMCs loaded with CELLTRACE™ Violet (C34557, ThermoFisher, MA, US), and T cells proliferation was assessed as described above.
# [3] = Bioavailability and pharmacokinetics of ShK-235 in circulation of healthy rats; type: in vivo, rat
# Procedure: To test whether the intestinal environment interferes with LrS235 secretion of ShK-235, or prevents it from crossing into the circulation, healthy rats were gavaged with a single bolus of 1×10^9 CFU of either LrGusA or LrS235, both after SppIP induction, and 6 hours later, sera was collected and the ability of serum samples to block Kv1.3 channels tested by whole-cell patch-clamp.
# Sera was taken at various timepoints ranging from 3 hours to 72 hours after the single bolus of LrS235. Peak levels of ShK-235 were detected 6 hours after LrS235 delivery, with the range of functional activity from 3 hours to 48 hours post-gavage (FIG. 8C).
# Bioavailability and pharmacokinetics of ShK-235 after oral delivery. Male rats received a single oral gavage of either 1×10^9 cfus LrS235 or an enteric-coated capsule filled with ShK-235. Blood was collected via the saphenous vein at the different time points indicated in the figure, the last blood draw being a terminal cardiac puncture (48). Serum samples were assayed for Kv1.3 block by patch-clamp electrophysiology.
# [4] = test system: Kv1.3 versus Kv1.1 and other ion channels; test: Selectivity for Kv1.3 over other channels by whole-cell patch-clamp; type: cell-based; details: FIG. 5E
# Excerpt: FIGS. 5A-5E. […] FIG. 5A. Whole-cell Kv1.3 currents before (control) and after addition of 100 pM ShK-235. FIG. 5B. Dose-response effects of ShK-235 on Kv1.3 currents (n=4 cells per concentration). FIG. 5C. Dose-response of mKv1.3 block by synthetic ShK-235. N=3 cells per concentration. […] FIG. 5D. Representative traces of the block of mKv1.3 currents by 100 pM synthetic ShK-235. FIG. 5E. Selectivity of ShK-235 against Kv1.x channels determined by whole-cell patch-clamp.
# Kv1.3 = Kv1.3 (Mus musculus, UniProt P16390); test: Block of Kv1.3 channel, reported potency; type: cell-based; details: FIGS. 5A-5B; n=4 cells per concentration
# Chain of Kv1.3 (P16390 whole entry): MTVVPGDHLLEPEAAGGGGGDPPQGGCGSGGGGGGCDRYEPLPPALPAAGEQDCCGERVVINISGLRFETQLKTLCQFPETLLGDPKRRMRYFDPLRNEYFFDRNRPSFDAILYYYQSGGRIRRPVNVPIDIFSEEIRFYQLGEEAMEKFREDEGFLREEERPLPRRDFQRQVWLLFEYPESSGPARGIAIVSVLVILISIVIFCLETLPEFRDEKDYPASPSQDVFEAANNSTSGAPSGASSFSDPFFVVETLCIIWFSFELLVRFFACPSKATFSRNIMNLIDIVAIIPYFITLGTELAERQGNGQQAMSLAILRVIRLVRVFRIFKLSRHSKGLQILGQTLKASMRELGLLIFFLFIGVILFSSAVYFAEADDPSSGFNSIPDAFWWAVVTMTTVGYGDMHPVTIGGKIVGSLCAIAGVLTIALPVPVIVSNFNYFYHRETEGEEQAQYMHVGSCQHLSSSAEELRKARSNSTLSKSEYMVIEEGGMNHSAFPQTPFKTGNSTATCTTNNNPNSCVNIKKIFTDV
# [5] = Pharmacokinetics following oral or subcutaneous administration in healthy and CIA rats; details: rat, in vivo
# Procedure: Pharmacokinetics following oral or subcutaneous administration of LrS235. Pharmacokinetics following oral or subcutaneous administration of LrS235 are conducted to determine the efficacy of ShK-235 entry into the circulation after its delivery via LrS235, an oral capsule, or subcutaneous injection, and the duration for which the peptide can be detected in the blood after a single bolus or repeated administration to rats with the CIA model of RA. The circulating levels of ShK-235 are quantified with two complementary and well-established techniques, mass spectrometry and single-cell patch-clamp, as the inventors and others have done with ShK, ShK analogs, and other Kv1.3 channel modulators^6,16,37,47-49,65. Tandem liquid chromatography triple quadrupole mass spectrometry (LC-QQQ-MS) is commonly used to rapidly detect and quantify small molecules and peptides for pharmacokinetics. As a complement, single-cell patch-clamp allows for the detection and quantification of functional peptide. This quantitative method (FIG. 9) has a low pM detection limit for the functional peptide. This technique has been validated and used to detect ShK-235 in the circulation of rats administrated the peptide via a capsule or via LrS235 (FIG. 8). […]
smiles,measurement,setting,value
CC[C@H](C)[C@@H]1NC(=O)[C@H](CO)NC(=O)[C@H](Cc2c[nH]cn2)NC(=O)[C@H](CCCCN)NC(=O)[C@@H]2CSSC[C@@H]3NC(=O)[C@H]([C@@H](C)O)NC(=O)[C@H](CCCCN)NC(=O)[C@H](CCCNC(=N)N)NC(=O)[C@H](CSSC[C@H](NC(=O)[C@H](CCCNC(=N)N)NC(=O)[C@H](CO)NC(=O)[C@H](CCCCN)NC(=O)[C@@H]4CCCN4C(=O)[C@H]([C@@H](C)CC)NC(=O)[C@H]([C@@H](C)O)NC(=O)[C@H](CC(=O)O)NC(=O)[C@H]([C@@H](C)CC)NC(=O)[C@@H](NC(=O)[C@H](CO)NC(=O)[C@@H](N)CCCNC(=N)N)CSSC[C@@H](C(=O)N[C@@H](C)C(=O)O)NC(=O)[C@H]([C@@H](C)O)NC(=O)CNC3=O)C(=O)N[C@@H]([C@@H](C)O)C(=O)N[C@@H](C)C(=O)N[C@@H](Cc3ccccc3)C(=O)N[C@@H](CCCCN)C(=O)N2)NC(=O)[C@H](Cc2ccccc2)NC(=O)[C@H](CO)NC(=O)[C@H](CC(C)C)NC(=O)[C@H](CCCNC(=N)N)NC(=O)[C@H](Cc2ccc(O)cc2)NC(=O)[C@H](CCCCN)NC1=O [ShK-235],Temperature stability,[1],up to 80 °C
same,Neutralization of ShK-235 by serum,[2],no neutralization
same,Serum levels of ShK-235 after enteric-coated capsule,[3]; oral ACRYL-EZE coated capsule filled with 0.3 mg ShK-235,no measurable serum levels
same,level at time molar,"[3]; rat, in vivo, injection of 0.1 mg/kg, read-out: Level detected in the circulation after injection",0.6 to 0.8 nM
same,Selectivity for Kv1.3 over other channels,[4],"≥ 2,200 fold"
same,IC50,Kv1.3,0.062 nM
same,Detection of ShK-235 in the circulation,[5],detected
